The record followed here is patent US20130259830A1, “CRTH2 MODULATORS” (Ironwood Pharmaceuticals, Inc., priority 2010, published 2013).

Usually IC50 stands for the point on the concentration scale where inhibition reaches its midpoint. The low end stands for greater potency, the high end for weaker potency.

Test [1] concerns the target T1, CRTH2 (Homo sapiens, UniProt Q9Y5Y4).
T1 construct: endogenous in cells; host or cells: eosinophils in human whole blood
T1 sequence (Q9Y5Y4 1-395): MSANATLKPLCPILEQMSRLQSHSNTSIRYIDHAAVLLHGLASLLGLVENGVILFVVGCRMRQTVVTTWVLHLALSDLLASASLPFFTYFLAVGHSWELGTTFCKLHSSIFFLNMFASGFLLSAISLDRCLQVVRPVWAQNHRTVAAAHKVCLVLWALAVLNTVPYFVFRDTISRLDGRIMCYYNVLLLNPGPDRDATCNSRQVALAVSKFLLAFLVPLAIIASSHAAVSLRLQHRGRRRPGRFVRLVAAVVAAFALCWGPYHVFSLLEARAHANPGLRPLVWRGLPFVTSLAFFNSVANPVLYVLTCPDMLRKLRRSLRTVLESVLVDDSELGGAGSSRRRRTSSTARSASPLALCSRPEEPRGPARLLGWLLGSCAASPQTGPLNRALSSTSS
Nature of the test: Human whole blood CD11b antagonist assay (CD11b expression in eosinophils challenged with 15-R-methyl-PGD2). It counts as cell-based. To be noted: 37° C. 10 minutes preincubation, agonist 15R-Methyl-PGD2 10 nM, eosinophils gated by flow cytometry. The procedure: Human Whole Blood […] Antagonist Assay (Modified from Nicholson, et al. Pulmonary Pharmacology and Therapeutics: 20 (2007); 52-59).
The potential CRTH2 antagonist activity of certain compounds was tested in human whole blood using an assay that tests the ability of the compounds to block the CD11b expression in eosinophils by 15-R-methyl-PGD2. A CRTH2 antagonist should block CD11b expression by subsequently added 15-Methyl-PGD2. Human whole blood (200 μL) was incubated at 37° C. for 10 minutes in the presence of various concentrations of test compounds before being challenged with the agonist 1-5R-Methyl-PGD2 (10 nM). Reactions were terminated by the addition of ice-cold PBS+0.5% BSA+2 mM EDTA (1 mL) and centrifugation (300×g for 5 minutes at 4° C.) Cells were then incubated at 4° C. for 10 min in the presence of human IgG. Cells were then incubated for 30-45 min with a mixture of PE-Cy5-labeled mouse anti-human CD16 (10 ul; BD Biosciences) and FITC-labeled mouse anti-human CD11b (10 μL; Beckman Coulter.) After rinsing (1 mL ice-cold PBS+0.5% BSA+2 mM EDTA), red blood cells were lysed by the addition of 1 mL ice-cold H2O to the cell pellet for 30 sec-1 min immediately followed by the addition of 3.5% NaCl (300 μL.) Cells were then rinsed (2×−1 ml ice cold PBS+0.5% BSA+2m MEDTA) and fixed in PBS containing 1% formaldehyde. The distribution of fluorescence intensities was measured by flow cytometry. Eosinophils were gated out on the basis of their granularity (high side scatter) and absence of CD-16. CD11b was then measured on this eosinophil population on the basis of fluorescence due to FITC.
On the technique in general: In flow cytometry, cells or beads pass a laser one at a time.

Test [2] has as its target T1, CRTH2. Nature of the test: DPBS CD11b antagonist assay (CD11b expression in eosinophils challenged with 15R-Methyl-PGD2). It counts as cell-based. To be noted: polymorphonuclear cells in PBS with CaCl2/MgCl2; agonist 15R-Methyl-PGD2 10 nM; eosinophils gated by flow cytometry. The procedure: DPBS CD111b Antagonist Assay.
The potential CRTH2 antagonist, activity of certain compounds was tested using a CD11b expression assay using essentially the method described by Monneret et al. (J Pharmacol Exp Ther 304:349-55, 2003). Briefly, polymorphonuclear cells (0.5 ml; 10^6/ml cells) in PBS containing 0.9 mM CaCl2 and 0.5 mM MgCl2) were preincubated with various concentrations of test compounds at room temperature for 10 minutes before they were challenged with the agonist 15R-Methyl-PGD2 (10 nM). The incubations were terminated by the addition of ice-cold FACSFlow (BD Biosciences; Cat#342003) and centrifugation (400 g for 5 minutes at 4° C.). The cells were then incubated for 30 minutes at 4° C. with a mixture of PE-labeled mouse anti-human VLA-4 (5 μl; BD Biosciences) and FITC-labeled mouse anti-human CD11b (10 μl; Beckman Coulter). The cells were then incubated with Optilyse C (0.25 ml; Beckman Coulter) for 15 minutes, centrifuged, and then fixed in PBS (0.4 ml; calcium and magnesium free) containing 1% formaldehyde. The distribution of fluorescence intensities among 60,000 cells was measured by flow cytometry. Eosinophils were gated out on the basis of their granularity (high side scatter) and labeling with VLA-4 (PE fluorescence). CD11b was then measured in the eosinophil region on the basis of fluorescence due to FITC. All data were corrected for the value obtained for the corresponding isotope control antibody.

As to `Cc1c(Cc2ccccc2S(=O)(=O)N2CCOCC2)c2c(n1CC(=O)O)CCNC2=O` [Compound I-50, 2-(2-Methyl-3-(2-(morpholinosulfonyl)benzyl)-4-oxo-4,5,6,7-tetrahydro-1H-pyrrolo[3,2-c]pyridin-1-yl)acetic acid], the IC50 was 1 to 5 nM in test [1] and less than 1 nM in test [2].

Regarding `Cc1c(Cc2cccnc2S(=O)(=O)c2ccc(Cl)cc2)c2c(n1CC(=O)O)CC(C)(C)CC2=O` [Compound I-15, 2-(3-((2-(4-Chlorophenylsulfonyl)pyridin-3-yl)methyl)-2,6,6-trimethyl-4-oxo-4,5,6,7-tetrahydro-1H-indol-1-yl)acetic acid], the IC50 in test [1] was 5 to 20 nM; in test [2] it was less than 1 nM.

Consider `CCOC(=O)Cn1c(C)c(Cc2cccnc2S(=O)(=O)c2ccccc2)c2c1CC(C)(C)CC2=O` [Compound I-9, ethyl 2-(2,6,6-trimethyl-4-oxo-3-((2-(phenylsulfonyl)pyridin-3-yl)methyl)-4,5,6,7-tetrahydro-1H-indol-1-yl)acetate], for which the IC50 fell in the range of 500 to 3000 nM in test [1] and 100 to 500 nM in test [2].

For `Cc1c(Cc2cccnc2S(=O)(=O)C2CC2)c2c(n1CC(=O)O)CC(C)(C)CC2=O` [Compound I-4, 2-(3-((2-(cyclopropylsulfonyl)pyridin-3-yl)methyl)-2,6,6-trimethyl-4-oxo-4,5,6,7-tetrahydro-1H-indol-1-yl)acetic acid], the IC50 in test [1] and in test [2] was 100 to 500 nM throughout.

For the compound `Cc1c(Cc2cccc(N(C)S(=O)(=O)N3CCCC3)c2)c2c(n1CC(=O)O)CC(C)(C)CC2=O` [Compound I-51, 2-(2,6,6-Trimethyl-3-(3-(N-methylpyrrolidine-1-sulfonamido)benzyl)-4-oxo-4,5,6,7-tetrahydro-1H-indol-1-yl)acetic acid], the IC50 was more than 3000 nM in test [1] and 100 to 500 nM in test [2].

For `Cc1c(Cc2ccccc2NS(=O)(=O)c2ccc(OCc3ccccc3)cc2)c2c(n1CC(=O)O)CC(C)(C)CC2=O` [Compound I-46, 2-(3-(2-(4-(Benzyloxy)phenylsulfonamido)benzyl)-2,6,6-trimethyl-4-oxo-4,5,6,7-tetrahydro-1H-indol-1-yl)acetic acid], the results for the IC50 in test [1] and in test [2] were 5 to 20 nM and less than 1 nM, respectively.

As for `Cc1c(Cc2ccc(S(=O)(=O)c3ccccc3)s2)c2c(n1CC(=O)O)CC(C)(C)CC2=O` [Compound I-26, 2-(2,6,6-Trimethyl-4-oxo-3-((5-(phenylsulfonyl)thiophen-2-yl)methyl)-4,5,6,7-tetrahydro-1H-indol-1-yl)acetic acid], the IC50 in test [1] was more than 3000 nM; in test [2], 100 to 500 nM.

With `Cc1c(Cc2cccnc2S(=O)(=O)c2ccc(C(F)(F)F)cc2)c2c(n1CC(=O)O)CC(C)(C)CC2=O` [Compound I-12, 2-(2,6,6-Trimethyl-4-oxo-3-((2-(4-(trifluoromethyl)phenylsulfonyl)pyridin-3-yl)methyl)-4,5,6,7-tetrahydro-1H-indol-1-yl)acetic acid], the IC50 in test [1] lay within 500 to 3000 nM; in test [2], 100 to 500 nM.

With `CCN(c1ccccc1Cc1c2c(n(CC(=O)O)c1C)CC(C)(C)CC2=O)S(=O)(=O)c1ccc(C)cc1` [Compound I-38, 2-(3-(2-(N-Ethyl-4-methylphenylsulfonamido)benzyl)-2,6,6-trimethyl-4-oxo-4,5,6,7-tetrahydro-1H-indol-1-yl)acetic acid], the IC50 lay in the range of 500 to 3000 nM in test [1] and 1 to 5 nM in test [2].

Turning to `Cc1ccc(S(=O)(=O)Nc2ccccc2Cc2c3c(n(CC(=O)O)c2C)CC(C)(C)CC3=O)cc1` [Compound I-23, 2-(2,6,6-Trimethyl-3-(2-(4-methylphenylsulfonamido)benzyl)-4-oxo-4,5,6,7-tetrahydro-1H-indol-1-yl)acetic acid], the IC50 in test [1] was 1 to 5 nM; in test [2] it was less than 1 nM.
